Experiments:
[1] = The receptor binding activity as the displacement of specifically bound [3H]-NPY from male Sprague-Dawley rat brain membrane homogenates; format: tissue-based
[2] = Percent maximum displacement of the [3H]NPY by the compound in the rat brain membrane was evaluated; format: cell membranes
Rattus norvegicus = species: Rattus norvegicus; assay: Inhibitory concentration was evaluated against the vasoconstriction induced by NPY in the rat femoral artery ring; format: functional
[3] = The receptor binding activity was evaluated as the displacement of specifically bound [3H]-NPY from male Sprague-Dawley rat brain membrane homogenates; format: tissue-based
[4] = Inhibition constant to displace [3H]-NPY from rat brain membrane after treatment with 500 evaluated; format: tissue-based

Row | IC50 [1] [µM] | Max displacement [2] [%] | IC50 (Rattus norvegicus) [µM] | IC50 [3] [µM] | Ki [4] [µM] | Compound
1 | 56 | 61 | 0.0431 |  |  | COc1ccccc1CNCCCCCCNCCSSCCNCCCCCCNCc1ccccc1OC [BENEXTRAMINE]
2 |  | 63 | 0.414 | 18.5 |  | N/C(=N\CCNC(=O)C(N)Cc1ccc(OCc2c(Cl)cccc2Cl)cc1)NCCSSCCN/C(N)=N/CCNC(=O)C(N)Cc1ccc(OCc2c(Cl)cccc2Cl)cc1 (stereo not given)
3 |  | 100 | 2.86 | 45.4 | 35.5 | N/C(=N\CCNC(=O)C(N)Cc1ccc(OCc2c(Cl)cccc2Cl)cc1)NCCCCCCN/C(N)=N/CCNC(=O)C(N)Cc1ccc(OCc2c(Cl)cccc2Cl)cc1 (stereo not given)
